Assay results reported in ChEMBL document CHEMBL1201862, “PubChem BioAssay data set” (2004).
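Assay format: 96-well plates, 48-hour exposure. GI50 = concentration required for 50% inhibition of growth.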 Activity calls are given as the source filed them. No stated cut-off is given here; in the data, active = GI50 up to about 1.1 µM and inactive = higher.

Assays:
Assay in all cases: growth of human tumour cells (NCI), 48 h
SR = tested on: SR
A498 = tested on: A498
MDA-N = tested on: MDA-N
NCI-H460 = tested on: NCI-H460
K562 = tested on: K562
SN12C = tested on: SN12C
MDA-MB-231 = tested on: MDA-MB-231
HL-60 = tested on: HL-60
UO-31 = tested on: UO-31
IGROV-1 = tested on: IGROV-1
NCI-H23 = tested on: NCI-H23
BT-549 = tested on: BT-549
OVCAR-4 = tested on: OVCAR-4
NCI-H226 = tested on: NCI-H226
HOP-92 = tested on: HOP-92
LOX IMVI = tested on: LOX IMVI
OVCAR-5 = tested on: OVCAR-5
UACC-62 = tested on: UACC-62
RPMI-8226 = tested on: RPMI-8226
KM12 = tested on: KM12

Compound | GI50 (SR) | GI50 (A498) | GI50 (MDA-N) | GI50 (NCI-H460) | GI50 (K562) | GI50 (SN12C) | GI50 (MDA-MB-231) | GI50 (HL-60) | GI50 (UO-31) | GI50 (IGROV-1) | GI50 (NCI-H23) | GI50 (BT-549) | GI50 (OVCAR-4) | GI50 (NCI-H226) | GI50 (HOP-92) | GI50 (LOX IMVI) | GI50 (OVCAR-5) | GI50 (UACC-62) | GI50 (RPMI-8226) | GI50 (KM12)
COc1ccc(C2c3cc4c(cc3OC(NNC(N)=O)C2C)OCO4)cc1 (stereo not given) | 1.9 µM (inactive) | 2.87 µM (inactive) | 1.87 µM (inactive) | 4.94 µM (inactive) | 2.86 µM (inactive) | 7.16 µM (inactive) | 11.7 µM (inactive) | 2.2 µM (inactive) | 10.6 µM (inactive) | 6.59 µM (inactive) | 14.6 µM (inactive) | 7.16 µM (inactive) | 56.4 µM (inactive) | 14.9 µM (inactive) | 16.5 µM (inactive) | 4.39 µM (inactive) | 26.6 µM (inactive) | 5.83 µM (inactive) | 3.3 µM (inactive) | 4.78 µM (inactive)
O=C1c2ccccc2C(=O)c2c1ccc1conc21 | 1.36 µM (inactive) | 11.9 µM (inactive) | 0.392 µM (active) | 5.51 µM (inactive) | 1.85 µM (inactive) | 1.87 µM (inactive) | 0.221 µM (active) | 0.402 µM (active) | 4.33 µM (inactive) | 2.98 µM (inactive) | 1.36 µM (inactive) | 1.91 µM (inactive) | 0.7 µM (active) | 7.06 µM (inactive) | 1.07 µM (active) | 0.469 µM (active) | 3 µM (inactive) | 2.45 µM (inactive) | 0.875 µM (active) | 3.24 µM (inactive)
CCOC(=O)CC[C@H](N)C(=O)N[C@H](Cc1ccc(N(CCCl)CCCl)cc1)C(=O)OCC | 0.09 µM (active) | 8.53 µM (inactive) | 16.1 µM (inactive) | 1.58 µM (inactive) | > 34.4 µM (inactive) | 1.79 µM (inactive) | 6.55 µM (inactive) | 4.16 µM (inactive) | 0.419 µM (active) | 2.71 µM (inactive) | 0.857 µM (active) | 9.25 µM (inactive) | 5.18 µM (inactive) | 7.76 µM (inactive) | 0.561 µM (active) | 4.61 µM (inactive) | 5.06 µM (inactive) | 1.51 µM (inactive) | 7.06 µM (inactive) | 3.32 µM (inactive)
CCOC(=O)C1(Cc2ccccc2)C=CN(C(=O)c2ccccc2)C=C1 | 22.4 µM (inactive) | 22.9 µM (inactive) | 24.3 µM (inactive) | 51.1 µM (inactive) | 27 µM (inactive) | 29.6 µM (inactive) | 37 µM (inactive) | 16.6 µM (inactive) | 45.8 µM (inactive) | 61.5 µM (inactive) | 30.1 µM (inactive) | 33.8 µM (inactive) | 42.8 µM (inactive) | > 100 µM (inactive) | 23.4 µM (inactive) | 34.4 µM (inactive) | > 100 µM (inactive) | 20.2 µM (inactive) | 18 µM (inactive) | 36.9 µM (inactive)
CSc1ncc2c(n1)-c1ccccc1OC2NC1CC1 (stereo not given) | > 100 µM (inactive) | 13.7 µM (inactive) | > 100 µM (inactive) | 81.8 µM (inactive) | 54 µM (inactive) | 63.5 µM (inactive) | > 100 µM (inactive) | 30.2 µM (inactive) | 33.2 µM (inactive) | 49 µM (inactive) | 73.6 µM (inactive) | 38 µM (inactive) | 30.6 µM (inactive) | 25.5 µM (inactive) | 43.9 µM (inactive) | 92 µM (inactive) | > 100 µM (inactive) | 25.8 µM (inactive) | 31.3 µM (inactive) | 73.5 µM (inactive)
CC(=O)O[C@H]1CC[C@@]2(C)C(=CC[C@H]3[C@@H]4C[C@H](N5CCN(C)CC5)[C@H](OC(C)=O)[C@@]4(C)CC[C@@H]32)C1 | 4.68 µM (inactive) | 20.9 µM (inactive) | 12.1 µM (inactive) | 21.6 µM (inactive) | 1.91 µM (inactive) | 24 µM (inactive) | 16.7 µM (inactive) | 2.44 µM (inactive) | > 53 µM (inactive) | 19 µM (inactive) | 22.9 µM (inactive) | 17.8 µM (inactive) | 17.6 µM (inactive) | 28.9 µM (inactive) | 25.4 µM (inactive) | 3.03 µM (inactive) | 26.1 µM (inactive) | 11.7 µM (inactive) | 4.39 µM (inactive) | 16.7 µM (inactive)
CCCCCOC(=O)C(=O)Nc1[nH]nnc1C(N)=O | > 100 µM (inactive) | > 100 µM (inactive) | > 100 µM (inactive) | > 100 µM (inactive) | > 100 µM (inactive) | > 100 µM (inactive) | > 100 µM (inactive) | > 100 µM (inactive) | > 100 µM (inactive) | > 100 µM (inactive) | > 100 µM (inactive) | > 100 µM (inactive) | > 100 µM (inactive) | > 100 µM (inactive) | > 100 µM (inactive) | > 100 µM (inactive) | > 100 µM (inactive) | > 100 µM (inactive) | > 100 µM (inactive) | > 100 µM (inactive)
